Test: wn = mass fraction of the nth substance listed
Conditions: 101 kPa, Liquid; for mass density: Vibrating tube method; for viscosity: Concentric cylinders viscometry

CC(CC(C)(C)C)CP(=O)([O-])CC(C)CC(C)(C)C.CCCCCCCCCCCCCC[P+](CCCCCC)(CCCCCC)CCCCCC + O
Conditions | mass density, w2 = 0.05 [kg/m3] | mass density, w2 = 0.1 [kg/m3] | viscosity, w2 = 0.05 [mPa·s] | viscosity, w2 = 0.1 [mPa·s]
293 K | 899.1 | 907.3 | – | –
298 K | 895.8 | 903.9 | 281 | 174
303 K | 892.6 | 900.7 | 203 | 137
308 K | 889.3 | 897.4 | 150 | 103
313 K | 886.1 | 894.1 | 114 | 78
318 K | 882.9 | 890.7 | 87 | 59
323 K | 879.7 | 887.4 | 68 | 47
328 K | 876.5 | 884 | 54 | 37
333 K | – | – | 44 | 31
338 K | – | – | 36 | 25
343 K | – | – | 31 | 23

CC(=O)[O-].CCCCn1cc[n+](C)c1 [1-butyl-3-methylimidazolium acetate] + CC(CC(C)(C)C)CP(=O)([O-])CC(C)CC(C)(C)C.CCCCCCCCCCCCCC[P+](CCCCCC)(CCCCCC)CCCCCC
Conditions | mass density, w1 = 0.2 [kg/m3] | mass density, w1 = 0.5 [kg/m3] | viscosity, w1 = 0.2 [mPa·s] | viscosity, w1 = 0.5 [mPa·s]
293 K | 908.8 | 937.1 | – | –
298 K | 905.6 | 933.6 | 160 | 33
303 K | 902.4 | 930.1 | 123 | 27
308 K | 899.3 | 926.6 | 97 | 22
313 K | 896.1 | 923.1 | 77 | 19
318 K | 893 | 919.6 | 63 | 17
323 K | 889.9 | 916.1 | 52 | 15
328 K | 886.7 | 912.6 | 44 | 13
333 K | 883.5 | 909.2 | 37 | 12
338 K | 880.3 | 905.7 | 32 | 11
343 K | 877.1 | 902.2 | 28 | 10

From the NIST ThermoML archive (doi:10.1021/je400655j)
